# Results reported in ChEMBL document CHEMBL5303573, “Mapping human microbiome drug metabolism by gut bacteria and their genes” (Nature, 2019).
# What was measured:
# [1] = The drug is tested on Clostridium symbiosum strain: ATCC14940 for biotransformation. The drug concentrations were measured before and after a 12-h incubation by liquid-chromatography-coupled mass spectrometry (LC–MS); details: 2 µM
# [2] = bacteroides thetaiotaomicron, 12 h, 2 µM
# Description: The drug is tested on Bacteroides thetaiotaomicron strain: 3731 for biotransformation. The drug concentrations were measured before and after a 12-h incubation by liquid-chromatography-coupled mass spectrometry (LC–MS)
# [3] = victivallis vadensis, 12 h, 2 µM
# Description: The drug is tested on Victivallis vadensis strain: ATCC BAA-548 for biotransformation. The drug concentrations were measured before and after a 12-h incubation by liquid-chromatography-coupled mass spectrometry (LC–MS)
# [4] = bacteroides eggerthii, 12 h, 2 µM
# Description: The drug is tested on Bacteroides eggerthii strain: DSM20697 for biotransformation. The drug concentrations were measured before and after a 12-h incubation by liquid-chromatography-coupled mass spectrometry (LC–MS)
# [5] = target: T1, Nitroreductase-like protein (Bacteroides thetaiotaomicron, UniProt Q8AB93); assay: (§1) The drug is tested on Bacteroides thetaiotaomicron strain: VPI-5482 for biotransformation. The drug concentrations were measured before and after a 12-h incubation by liquid-chromatography-coupled mass spectrometry (LC–MS); assay type: ADME; set-up: dose 2 uM; details: 2 µM
# T1 sequence (Q8AB93 whole entry): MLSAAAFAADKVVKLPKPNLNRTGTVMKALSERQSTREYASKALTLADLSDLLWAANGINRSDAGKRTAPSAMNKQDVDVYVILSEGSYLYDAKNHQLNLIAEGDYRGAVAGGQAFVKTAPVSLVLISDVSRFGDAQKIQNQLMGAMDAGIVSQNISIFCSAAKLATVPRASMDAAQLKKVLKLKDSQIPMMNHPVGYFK
# Acylhydrolase = target: T2, Acylhydrolase (Bacteroides thetaiotaomicron, UniProt Q8AA96); assay: as §1; assay type: ADME; set-up: dose 2 uM; details: 2 µM
# T2 sequence (Q8AA96 whole entry): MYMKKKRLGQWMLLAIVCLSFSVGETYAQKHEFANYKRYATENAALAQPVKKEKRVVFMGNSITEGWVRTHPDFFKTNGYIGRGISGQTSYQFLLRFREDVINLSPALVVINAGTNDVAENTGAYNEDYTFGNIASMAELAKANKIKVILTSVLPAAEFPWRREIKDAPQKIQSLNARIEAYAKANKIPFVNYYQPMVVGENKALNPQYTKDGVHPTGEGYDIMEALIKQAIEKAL
# Regulatory protein = target: T3, Regulatory protein (Bacteroides thetaiotaomicron, UniProt Q8A576); assay: as §1; assay type: ADME; set-up: dose 2 uM; details: 2 µM
# T3 sequence (Q8A576 whole entry): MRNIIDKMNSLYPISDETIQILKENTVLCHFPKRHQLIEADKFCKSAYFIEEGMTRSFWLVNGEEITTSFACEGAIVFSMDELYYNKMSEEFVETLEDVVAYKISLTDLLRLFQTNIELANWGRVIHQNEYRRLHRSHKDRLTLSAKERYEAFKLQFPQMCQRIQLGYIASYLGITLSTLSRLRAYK
# General stress protein = General stress protein (Bacteroides thetaiotaomicron, UniProt Q8A7U5); assay: as §1; assay type: ADME; set-up: dose 2 uM; details: 2 µM
# Acyltransferase = target: T4, Acyltransferase (Bacteroides thetaiotaomicron, UniProt Q8A575); assay: as §1; assay type: ADME; set-up: dose 2 uM; details: 2 µM
# T4 sequence (Q8A575 whole entry): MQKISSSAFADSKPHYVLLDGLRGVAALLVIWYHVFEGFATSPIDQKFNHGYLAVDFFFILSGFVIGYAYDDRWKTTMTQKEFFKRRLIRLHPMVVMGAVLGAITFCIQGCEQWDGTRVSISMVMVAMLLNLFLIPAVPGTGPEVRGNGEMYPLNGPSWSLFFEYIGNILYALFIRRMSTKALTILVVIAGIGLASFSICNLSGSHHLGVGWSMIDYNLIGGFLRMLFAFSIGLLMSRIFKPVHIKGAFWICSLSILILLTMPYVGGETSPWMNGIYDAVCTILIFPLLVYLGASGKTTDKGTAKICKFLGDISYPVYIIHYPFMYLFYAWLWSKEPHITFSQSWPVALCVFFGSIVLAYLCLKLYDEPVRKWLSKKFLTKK
# [6] = target: T5, NADH dehydrogenase/NAD(P)H nitroreductase (Bacteroides thetaiotaomicron, UniProt Q8A8L9); assay: as §1; assay type: ADME; set-up: dose 2 uM; details: 2 µM
# T5 sequence (Q8A8L9 whole entry): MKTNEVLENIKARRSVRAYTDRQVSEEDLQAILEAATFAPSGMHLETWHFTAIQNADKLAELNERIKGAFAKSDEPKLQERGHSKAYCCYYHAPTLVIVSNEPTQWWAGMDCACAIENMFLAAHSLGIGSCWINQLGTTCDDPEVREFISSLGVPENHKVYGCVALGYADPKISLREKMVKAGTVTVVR
# Lipoprotein = target: T6, Lipoprotein (Bacteroides thetaiotaomicron, UniProt Q8A343); assay: as §1; assay type: ADME; set-up: dose 2 uM; details: 2 µM
# T6 sequence (Q8A343 whole entry): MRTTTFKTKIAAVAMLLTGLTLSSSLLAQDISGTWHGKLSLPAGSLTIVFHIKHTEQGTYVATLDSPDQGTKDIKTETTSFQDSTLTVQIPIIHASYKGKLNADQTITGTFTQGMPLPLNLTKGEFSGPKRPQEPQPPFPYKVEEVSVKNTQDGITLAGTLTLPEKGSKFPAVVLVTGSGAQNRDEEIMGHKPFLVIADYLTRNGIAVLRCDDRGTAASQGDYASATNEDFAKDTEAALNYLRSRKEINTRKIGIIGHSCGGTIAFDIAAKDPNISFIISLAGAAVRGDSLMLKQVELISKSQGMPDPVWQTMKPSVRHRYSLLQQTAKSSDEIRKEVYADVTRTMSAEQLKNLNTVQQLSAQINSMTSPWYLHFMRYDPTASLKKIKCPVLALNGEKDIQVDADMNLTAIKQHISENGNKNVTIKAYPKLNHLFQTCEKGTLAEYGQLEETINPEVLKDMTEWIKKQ
# [7] = target: T7, Lipolytic enzyme, G-D-S-L family (Bacteroides thetaiotaomicron, UniProt Q8A0E6); assay: as §1; assay type: ADME; set-up: dose 2 uM; details: 2 µM
# T7 sequence (Q8A0E6 whole entry): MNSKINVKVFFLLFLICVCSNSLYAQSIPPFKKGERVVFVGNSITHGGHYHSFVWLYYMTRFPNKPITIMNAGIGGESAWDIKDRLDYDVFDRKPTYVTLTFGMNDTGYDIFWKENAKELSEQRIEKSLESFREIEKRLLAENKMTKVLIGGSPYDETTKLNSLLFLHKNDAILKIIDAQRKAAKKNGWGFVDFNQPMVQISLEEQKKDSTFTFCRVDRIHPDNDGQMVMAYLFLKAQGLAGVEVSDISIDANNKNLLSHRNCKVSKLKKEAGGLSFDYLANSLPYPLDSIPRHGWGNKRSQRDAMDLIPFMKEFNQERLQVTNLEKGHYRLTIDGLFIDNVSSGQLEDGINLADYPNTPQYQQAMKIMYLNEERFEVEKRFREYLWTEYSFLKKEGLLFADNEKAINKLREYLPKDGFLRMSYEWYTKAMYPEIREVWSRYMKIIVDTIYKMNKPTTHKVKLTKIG
# [8] = The drug is tested on Blautia luti strain: DSM14534 for biotransformation. The drug concentrations were measured before and after a 12-h incubation by liquid-chromatography-coupled mass spectrometry (LC–MS); assay type: ADME; set-up: dose 2 uM, timepoint 0 vs 12 hours; details: 2 µM
# [9] = The drug is tested on Eggerthella lenta strain: ATCC25559 for biotransformation. The drug concentrations were measured before and after a 12-h incubation by liquid-chromatography-coupled mass spectrometry (LC–MS); details: 2 µM
# [10] = The drug is tested on Clostridium ramosum strain: DSM1402 for biotransformation. The drug concentrations were measured before and after a 12-h incubation by liquid-chromatography-coupled mass spectrometry (LC–MS); details: thomasclavelia ramosa, 2 µM
# General stress protein, sequence (Q8A7U5 1-138, change not shown): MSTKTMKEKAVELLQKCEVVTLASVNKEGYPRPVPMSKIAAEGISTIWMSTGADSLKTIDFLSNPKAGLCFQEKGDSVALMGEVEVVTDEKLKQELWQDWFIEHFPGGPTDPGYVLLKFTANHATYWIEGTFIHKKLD
Compound,Bacterial Biotransformation [1],Bacterial Biotransformation [2],Bacterial Biotransformation [3],Bacterial Biotransformation [4],Bacterial Biotransformation [5],Bacterial Biotransformation (Acylhydrolase),Bacterial Biotransformation (Regulatory protein),Bacterial Biotransformation (General stress protein),Bacterial Biotransformation (Acyltransferase),Bacterial Biotransformation [6],Bacterial Biotransformation (Lipoprotein),Bacterial Biotransformation [7],Bacterial Biotransformation [8],Bacterial Biotransformation [9],Bacterial Biotransformation [10]
CC(=O)OCC(=O)[C@@]1(OC(C)=O)[C@@H](C)C[C@H]2[C@@H]3C[C@H](F)C4=CC(=O)C=C[C@]4(C)[C@@]3(F)[C@@H](O)C[C@@]21C [DIFLORASONE DIACETATE],Compound metabolized,Compound metabolized,Compound metabolized,Compound metabolized,Compound NOT metabolized,Compound metabolized,Compound NOT metabolized,Compound NOT metabolized,Compound NOT metabolized,Compound NOT metabolized,Compound NOT metabolized,Compound NOT metabolized,Compound metabolized,,
C#C[C@]1(O)CC[C@H]2[C@@H]3CCC4=CC(=O)CC[C@@H]4[C@H]3CC[C@@]21CC [LEVONORGESTREL],Compound NOT metabolized,Compound metabolized,,Compound NOT metabolized,Compound NOT metabolized,Compound NOT metabolized,Compound NOT metabolized,Compound NOT metabolized,Compound NOT metabolized,Compound NOT metabolized,Compound NOT metabolized,Compound NOT metabolized,Compound NOT metabolized,Compound NOT metabolized,Compound NOT metabolized
COc1ccc([C@@H]2Sc3ccccc3N(CCN(C)C)C(=O)[C@@H]2OC(C)=O)cc1 [DILTIAZEM],Compound metabolized,Compound metabolized,Compound metabolized,Compound NOT metabolized,Compound NOT metabolized,Compound NOT metabolized,Compound NOT metabolized,Compound NOT metabolized,Compound NOT metabolized,Compound NOT metabolized,Compound NOT metabolized,Compound NOT metabolized,Compound NOT metabolized,Compound metabolized,
N#Cc1ccc2c(c1)N(CCCN1CCC(O)CC1)c1ccccc1S2 [PERICIAZINE],Compound NOT metabolized,Compound metabolized,Compound NOT metabolized,Compound NOT metabolized,Compound NOT metabolized,Compound NOT metabolized,Compound NOT metabolized,Compound NOT metabolized,Compound metabolized,Compound NOT metabolized,Compound NOT metabolized,Compound NOT metabolized,Compound NOT metabolized,Compound NOT metabolized,
CC(=O)OCC(CCn1cnc2cnc(N)nc21)COC(C)=O [FAMCICLOVIR],Compound NOT metabolized,Compound metabolized,Compound metabolized,Compound metabolized,Compound NOT metabolized,Compound metabolized,Compound NOT metabolized,Compound NOT metabolized,Compound NOT metabolized,Compound NOT metabolized,Compound NOT metabolized,Compound NOT metabolized,Compound NOT metabolized,,
C#C[C@]1(OC(C)=O)CC[C@H]2[C@@H]3CCC4=CC(=O)CC[C@@H]4[C@H]3CC[C@@]21C [NORETHINDRONE ACETATE],Compound metabolized,Compound metabolized,Compound NOT metabolized,Compound metabolized,Compound NOT metabolized,Compound NOT metabolized,Compound NOT metabolized,Compound NOT metabolized,Compound NOT metabolized,Compound NOT metabolized,Compound NOT metabolized,Compound NOT metabolized,Compound metabolized,,Compound NOT metabolized
